The source of these data is patent publication US20060281700A1, “SYNERGISTIC MODULATION OF FLT3 KINASE USING AMINOPYRIMIDINES KINASE MODULATORS” (priority 2005, published 2006).

Structures are written as SMILES.

For one data set, the system named is MV4-11 tumor xenografts. Put plainly: MV4-11 human tumor xenograft regression model in nude mice. It is filed as in vivo. As to the method: Female athymic nude mice (CD-1, nu/nu, 9-10 weeks old) were obtained from Charles River Laboratories (Wilmington, Mass.) and were maintained according to NIH standards. All mice were group housed (5 mice/cage) under clean-room conditions in sterile micro-isolator cages on a 12-hour light/dark cycle in a room maintained at 21-22° C. and 40-50% humidity. Mice were fed irradiated standard rodent diet and water ad libitum. All animals were housed in a Laboratory Animal Medicine facility that is fully accredited by the American Association for Assessment and Accreditation of Laboratory Animal Care (AAALAC). […]
The time course of the inhibitory effects of FLT3 inhibitor compounds on the growth of MV4-11 tumors is illustrated in FIG. 1. […] Percent inhibition (% I) of tumor growth was calculated versus tumor growth in the vehicle-treated Control group on the last study day. Statistical significance versus Control was determined by Analysis of Variance (ANOVA) followed by Dunnett's t-test: *p<0.05; **p<0.01.
(See FIG. 2). […] Percent Inhibition was calculated versus the mean tumor weight in the vehicle-treated control group. Statistical significance versus Control was determined by ANOVA followed by Dunnett's t-test: **p<0.01. […]

The nature of data set [1]: Tolerability in MV4-11 tumor-bearing nude mice (body weight, overt clinical signs). Particulars: either agent alone or in combination. The method, then: Female athymic nude mice weighing no less than 20-21 grams were inoculated subcutaneously in the left inguinal region of the thigh with 5×10^6 tumor cells in a delivery volume of 0.2 mL. For regression studies, the tumors were allowed to grow to a pre-determined size prior to initiation of dosing. […] Mice were dosed orally by gavage with vehicle (control group) or compound at various doses twice-daily (b.i.d.) during the week and once-daily (q.d.) on weekends. […] If tumors in the control mice reached ˜10% of body weight (˜2.0 grams), the study was to be terminated. […] During the study, tumor growth was measured three times-a-week (M, W, F) using electronic Vernier calipers. Tumor volume (mm^3) was calculated using the formula […], where L=length (mm) and W=width (shortest distance in mm) of the tumor. Body weight was measured three times-a-week and a loss of body weight >10% was used as an indication of lack of compound tolerability. […]
Female athymic nude mice weighing no less than 20-21 grams were inoculated subcutaneously in the left inguinal region of the thigh with 5×10^6 tumor cells in a delivery volume of 0.2 mL. For regression studies, the tumors were allowed to grow to a pre-determined size prior to initiation of dosing. […] During the study, tumor growth was measured three times-a-week (M, W, F) using electronic Vernier calipers. […]

As for `Cn1cncc1C(N)(c1ccc(Cl)cc1)c1ccc2c(c1)c(-c1cccc(Cl)c1)cc(=O)n2C` (single isomer, unassigned; (+)) [Tipifarnib, (+)-6-[amino(4-chlorophenyl)(1-methyl-1H-imidazol-5-yl)methyl]-4-(3-chlorophenyl)-1-methyl-2(1H)-quinolinone], in the data set with MV4-11 tumor xenografts (Day 16, Compound D 25 mg/kg bid, Tipifarnib 50 mg/kg, alone or in combination), the “inhibition of tumor volume vs vehicle-treated control group” value was “ineffective”. The “tumor growth vs Vehicle-treated group” value in the data set with MV4-11 tumor xenografts (Tipifarnib 50 mg/kg single agent, nine days) is reported as “ineffective”. Further, the overt toxicity result in data set [1] (9-day treatment) and in data set [1] (16-day treatment) was “No overt toxicity” throughout.
